From ChEMBL document CHEMBL1201862, “PubChem BioAssay data set” (2004)
Where a name gives a salt, the structure may show the parent alone.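 Assay format: 96-well plates, 48-hour exposure. At the GI50, growth is halved.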 Activity calls are given as the source filed them. Rule as the data show it: active = GI50 up to about 1.1 µM and inactive = higher.

Experiments:
Assay in all cases: DTP human tumour cell line panel, 48 h
A498 = test system: A498
EKVX = test system: EKVX
HOP-62 = test system: HOP-62
HOP-92 = test system: HOP-92
HT-29 = test system: HT-29
IGROV-1 = test system: IGROV-1
MCF7 = test system: MCF7
MOLT-4 = test system: MOLT-4
NCI-H23 = test system: NCI-H23
OVCAR-3 = test system: OVCAR-3
OVCAR-5 = test system: OVCAR-5
OVCAR-8 = test system: OVCAR-8
RXF 393 = test system: RXF 393
SK-MEL-2 = test system: SK-MEL-2
SNB-19 = test system: SNB-19
T47D = test system: T47D
UACC-257 = test system: UACC-257
UACC-62 = test system: UACC-62
UO-31 = test system: UO-31
SNB-75 = test system: SNB-75

SMILES | GI50 (A498) | GI50 (EKVX) | GI50 (HOP-62) | GI50 (HOP-92) | GI50 (HT-29) | GI50 (IGROV-1) | GI50 (MCF7) | GI50 (MOLT-4) | GI50 (NCI-H23) | GI50 (OVCAR-3) | GI50 (OVCAR-5) | GI50 (OVCAR-8) | GI50 (RXF 393) | GI50 (SK-MEL-2) | GI50 (SNB-19) | GI50 (T47D) | GI50 (UACC-257) | GI50 (UACC-62) | GI50 (UO-31) | GI50 (SNB-75)
Nc1nc(-c2cccnc2)cc(-c2cc(-c3cccnc3)nc(N)n2)n1 | > 100 µM (inactive) | > 100 µM (inactive) | > 100 µM (inactive) | > 100 µM (inactive) | > 100 µM (inactive) | > 100 µM (inactive) | > 100 µM (inactive) | > 100 µM (inactive) | > 100 µM (inactive) | > 100 µM (inactive) | > 100 µM (inactive) | > 100 µM (inactive) | > 100 µM (inactive) | > 100 µM (inactive) | > 100 µM (inactive) | > 100 µM (inactive) | > 100 µM (inactive) | > 100 µM (inactive) | > 100 µM (inactive) | 
CCOC(=O)c1nc(SC)sc1NC(=O)c1ccc(OC)cc1 | 15.8 µM (inactive) | > 100 µM (inactive) | 34.7 µM (inactive) | > 100 µM (inactive) | 66.2 µM (inactive) | > 100 µM (inactive) | 46.5 µM (inactive) | > 100 µM (inactive) | > 100 µM (inactive) | > 100 µM (inactive) | > 100 µM (inactive) | 58.7 µM (inactive) | 33.4 µM (inactive) | > 100 µM (inactive) | 75.7 µM (inactive) | 98.2 µM (inactive) | > 100 µM (inactive) | > 100 µM (inactive) | > 100 µM (inactive) | 
COC(=O)C(I(OS(=O)(=O)c1ccc(C)cc1)c1ccccc1)=P(c1ccccc1)(c1ccccc1)c1ccccc1 | 18.2 µM (inactive) | 23.7 µM (inactive) | 19.3 µM (inactive) | 14.7 µM (inactive) | 20.6 µM (inactive) | 17.1 µM (inactive) | 30.3 µM (inactive) | 20.7 µM (inactive) | 16.8 µM (inactive) | 16.4 µM (inactive) | 28.6 µM (inactive) | 21.2 µM (inactive) | 20.5 µM (inactive) | 18.2 µM (inactive) | 33.9 µM (inactive) | 15.9 µM (inactive) | 17.9 µM (inactive) | 18.7 µM (inactive) | 22.2 µM (inactive) | 
CC(=O)Nc1oc(C)c(C)c1S(=O)(=O)c1ccc(Cl)cc1 | > 100 µM (inactive) | 39.4 µM (inactive) |  | > 100 µM (inactive) | 49 µM (inactive) | 70 µM (inactive) | 19.5 µM (inactive) | 39.4 µM (inactive) | 43.3 µM (inactive) | 27.5 µM (inactive) | > 100 µM (inactive) | 45.7 µM (inactive) | 69.7 µM (inactive) | 28.4 µM (inactive) | > 100 µM (inactive) | 52.7 µM (inactive) | 41 µM (inactive) | 42 µM (inactive) | 39 µM (inactive) | 34.4 µM (inactive)
CCC(CCC(C)C1CCC2C3CC=C4CC(OC5OC(CO)C(O)C(O)C5O)CCC4(C)C3CCC12C)C(C)C (configuration not stated) | > 100 µM (inactive) | > 100 µM (inactive) | > 100 µM (inactive) | > 100 µM (inactive) | > 100 µM (inactive) | > 100 µM (inactive) | > 100 µM (inactive) | > 100 µM (inactive) | > 100 µM (inactive) | > 100 µM (inactive) | > 100 µM (inactive) | > 100 µM (inactive) | > 100 µM (inactive) | > 100 µM (inactive) | > 100 µM (inactive) | > 100 µM (inactive) | > 100 µM (inactive) | > 100 µM (inactive) | > 100 µM (inactive) | 
COc1ccc(C2=NN(C(=O)c3ccccc3)C(O)(c3cc(F)c(Cl)cc3Cl)C2)cc1OC (configuration not stated) | 32.1 µM (inactive) | 32.7 µM (inactive) | 17.2 µM (inactive) | 21.4 µM (inactive) | 23.5 µM (inactive) | 40.1 µM (inactive) | 32.1 µM (inactive) | 8.61 µM (inactive) | 42.3 µM (inactive) | 20.4 µM (inactive) | 71.3 µM (inactive) | 48.4 µM (inactive) | 18.9 µM (inactive) | 29 µM (inactive) | 36.5 µM (inactive) | 50.8 µM (inactive) | 60.4 µM (inactive) | 45.6 µM (inactive) | 30.9 µM (inactive) | 
C[C@@H]1CCC2[C@@H](C)[C@@H](OCCO[C@H]3OC4O[C@@]5(C)CCC6[C@H](C)CCC([C@H]3C)[C@@]46OO5)OC3O[C@@]4(C)CCC1[C@]32OO4 (some centres not stated) | 1.92 µM (inactive) | 1.48 µM (inactive) | 1.34 µM (inactive) | 2.64 µM (inactive) | 0.05 µM (active) | 0.0652 µM (active) | 0.0312 µM (active) | 0.0483 µM (active) | 0.115 µM (active) |  | 0.0826 µM (active) | 0.0982 µM (active) | 0.94 µM (active) | 0.292 µM (active) |  | 0.0263 µM (active) | 0.39 µM (active) | 0.279 µM (active) | 0.201 µM (active) | 0.546 µM (active)
CSc1ncc2c(n1)-c1ccccc1OC2N1CCCCC1 (configuration not stated) | 22.2 µM (inactive) | 35.2 µM (inactive) |  | 25 µM (inactive) | 25.4 µM (inactive) | 40.1 µM (inactive) | 23.8 µM (inactive) | 20.2 µM (inactive) | 41.7 µM (inactive) | 38.5 µM (inactive) | 42 µM (inactive) | 63.8 µM (inactive) | 32.1 µM (inactive) | 25.9 µM (inactive) | 68.7 µM (inactive) | 27.3 µM (inactive) | 34.6 µM (inactive) | 22.4 µM (inactive) | 32.5 µM (inactive) | 66.5 µM (inactive)
CC(=O)c1c(O)nnc(-c2ccc(Cl)cc2)c1-c1ccc(Cl)cc1 | 26.7 µM (inactive) | 53.3 µM (inactive) |  | 52.7 µM (inactive) | 40.5 µM (inactive) | 26.2 µM (inactive) | 32.1 µM (inactive) | 48.5 µM (inactive) | 69.3 µM (inactive) | 25.1 µM (inactive) | > 100 µM (inactive) | 31.5 µM (inactive) | 38.9 µM (inactive) | 25.1 µM (inactive) | > 100 µM (inactive) | 31.5 µM (inactive) | 39 µM (inactive) | 12.4 µM (inactive) |  | 
COc1ccc(Cc2nccc3cc(OC)c(OC)cc23)cc1OC [PAPAVERINE HYDROCHLORIDE] | 77.3 µM (inactive) | 45.5 µM (inactive) | 43.8 µM (inactive) | 36.5 µM (inactive) | 41.3 µM (inactive) | > 100 µM (inactive) | > 100 µM (inactive) | 47.8 µM (inactive) | 19.8 µM (inactive) | > 100 µM (inactive) | > 100 µM (inactive) | 64.9 µM (inactive) |  | > 100 µM (inactive) | 70.1 µM (inactive) | 19.5 µM (inactive) | > 100 µM (inactive) | > 100 µM (inactive) | 78.7 µM (inactive) | > 100 µM (inactive)
